Measured values: publication PMC6355697, “Binding Specificity of Native Odorant-Binding Protein Isoforms Is Driven by Phosphorylation and O-N-Acetylglucosaminylation in the Pig Sus scrofa” (Frontiers in Endocrinology, 2019)
Read-outs that look alike come from different tables or passages of the source.

Experiments:
OBP-native-iso3 [1] = target: T1, OBP-native-iso3 (Sus scrofa, UniProt P81245); test: Fluorescence titration with the probe AMA; format: binding; conditions: OBP-native-iso3 at 1 μM, 50 mM Tris buffer pH 7.8, estimated
T1 sequence (P81245 1-157): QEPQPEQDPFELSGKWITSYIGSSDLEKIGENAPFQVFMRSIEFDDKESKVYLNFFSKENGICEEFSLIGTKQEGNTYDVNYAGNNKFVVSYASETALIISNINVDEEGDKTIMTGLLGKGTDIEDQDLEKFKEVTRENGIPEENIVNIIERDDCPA
Procedure: (§1) Androstenone (3-keto-5α, 16-androstene), androstenol (3α-hydroxy-5α-androst-16-ene), testosterone (17β-hydroxy-3-oxo-4-androstene), palmitic acid (hexadecanoic acid), myristic acid (tetradecanoic acid), and AMA (1-aminoanthracene) were purchased from Sigma-Aldrich. UV-visible spectra were recorded on a Cary-100 double beam spectrometer (Varian) with a cell of 0.5 cm path length. The protein concentration was calculated by UV-visible spectroscopy, by using the molar extinction coefficient of 11,740 M^−1cm^−1 for OBP (calculated by the software “ProtParam tool” at www.expasy.org) at the maximum wavelength of absorption (280 nm). Steady state fluorescence measurements were performed on a Fluoromax-3 (Jobin-Yvon) spectrofluorimeter using a micro quartz cell (0.5 cm light-path) with a reflecting window. 1-Aminoantracene (AMA) was used as a fluorescent probe. The experimental conditions and data treatment have been described previously ([17]). The dissociation constant (Kd-AMA) of the OBP-AMA complex was calculated from the binding curve by fitting the experimental data with the use of the computer program Origin 7.5 (OriginLab Corporation). The affinities of the five ligands were measured in a competitive binding assay with AMA as the fluorescent probe. AMA was dissolved in 100% ethanol to yield a 1 mM stock solution. For protein titration, aliquots of AMA were successively added to the protein at 1 or 2.5 μM in 50 mM Tris buffer (pH 7.8) and emission spectra were acquired after a 15 min equilibration period. Competitive binding experiments were then carried out with different protein and ligand concentrations. The spectra were recorded 15 min after the ligand addition, and competition was monitored by following the decrease in intensity of fluorescence associated with the band of AMA bound to the protein. The apparent Kd values of the ligand-protein complexes were calculated as described in Brimau et al. ([17]).
(§2) We measured the affinity of the four native OBP isoforms for the five selected ligands under the same experimental conditions that were used previously for recombinant OBP isoforms ([17]). The four isoforms were first titrated with the fluorescent probe, AMA. OBP-native-iso3 was collected in smaller quantities than the 3 other isoforms and was used at a 1 μM concentration instead of 2.5 μM and saturated with 2 μM AMA, instead of 3.75 μM AMA. […] Two classes of isoforms, -iso1 and -iso2, bound the two fatty acids and not the steroids.

OBP-native-iso4 [2] = target: T2, OBP-native-iso4 (Sus scrofa, UniProt P81245); test: Fluorescence titration with the probe AMA; format: binding; conditions: OBP-native-iso4 at 2.5 μM, 50 mM Tris buffer pH 7.8, estimated
T2 sequence (P81245 1-157): T1 sequence (P81245 1-157)
Procedure: as §1, §2

OBP-native-iso2 [3] = target: T3, OBP-native-iso2 (Sus scrofa, UniProt P81245); test: Fluorescence titration with the probe AMA; format: binding; conditions: OBP-native-iso2 at 2.5 μM, 50 mM Tris buffer pH 7.8, estimated
T3 construct: Proteins were gently extracted from RM of pre-pubertal males of S. scrofa; from tissue; host or cells: RM (respiratory mucosa) extract of pre-pubertal male pigs, purified by two rounds of anion-exchange HPLC
T3 sequence (P81245 1-157): T1 sequence (P81245 1-157)
Procedure: as §1, §2

OBP-native-iso1 [4] = target: T4, OBP-native-iso1 (Sus scrofa, UniProt P81245); test: Fluorescence titration with the probe AMA; format: binding; conditions: OBP-native-iso1 at 2.5 μM, 50 mM Tris buffer pH 7.8, estimated
T4 construct: Proteins were gently extracted from RM of pre-pubertal males of S. scrofa; from tissue; host or cells: RM (respiratory mucosa) extract of pre-pubertal male pigs, purified by two rounds of anion-exchange HPLC
T4 sequence (P81245 1-157): T1 sequence (P81245 1-157)
Procedure: as §1, §2

OBP-native-iso4 [5] = target: T2, OBP-native-iso4; test: Competitive fluorescence binding assay with AMA as probe; conditions: for IC50: OBP-native-iso4 2.5 μM saturated with 3.75 μM AMA, competitor 0 to 15 μM; for binding of ligand (in words) / Kd: OBP-native-iso4; for Kd: calculated dissociation constant from AMA competition
Procedure: as §1, §2
(§3) Figure 6 Competitive binding assays of five selected ligands of biological relevance to native OBP isoforms from S. scrofa. (A) OBP-native-iso1; (B) OBP-native-iso2; (C) OBP-native-iso3; and (D) OBP-native-iso4. Proteins were used at 2.5 μM (A,B,D) or 1 μM (C) concentration and were saturated with 3.75 μM (A,B,D) or 2 μM (C) of the fluorescent probe 1-AMA. Competitors were added at increasing concentration from 0 to 6 μM (A,B) or to 15 μM (C,D).

OBP-native-iso2 [6] = target: T3, OBP-native-iso2; test: as above; conditions: for IC50: OBP-native-iso2 2.5 μM saturated with 3.75 μM AMA, competitor 0 to 6 μM; for Kd: calculated dissociation constant from AMA competition
Procedure: as §1, §2, §3

OBP-native-iso1 [7] = target: T4, OBP-native-iso1; test: as above; conditions: for IC50: OBP-native-iso1 2.5 μM saturated with 3.75 μM AMA, competitor 0 to 6 μM; for Kd: calculated dissociation constant from AMA competition
Procedure: as §1, §2, §3

OBP-Pichia-iso3 = tested on: OBP-Pichia-iso3; design: method as in PMID 20589419; conditions: OBP-Pichia-iso3, recombinant, phosphorylated only; cited from earlier work
OBP-native-iso3 [8] = target: T1, OBP-native-iso3; test: Competitive fluorescence binding assay with AMA as probe; conditions: for binding of ligand (in words) / Kd: OBP-native-iso3; for IC50: OBP-native-iso3 1 μM saturated with 2 μM AMA, competitor 0 to 15 μM; for Kd: calculated dissociation constant from AMA competition
Procedure: as §1, §2, §3

OBP-native-iso4 [9] = test: as above; design: species or system Sus scrofa; conditions: ratio of Ka values
Procedure: as §1, §2, §3

SMILES | IC50 (OBP-native-iso4 [5]; read-out: IC50) [nM] | IC50 (OBP-native-iso2 [6]; read-out: IC50) [nM] | Kd (OBP-native-iso2 [6]; OBP-native-iso2) [nM] | IC50 (OBP-native-iso1 [7]; read-out: IC50) [nM] | Kd (OBP-native-iso1 [7]; OBP-native-iso1) [nM] | binding of ligand (in words) (OBP-Pichia-iso3) | binding of ligand (in words) (OBP-native-iso3 [8]) | IC50 (OBP-native-iso3 [8]; read-out: IC50) [nM] | Kd (OBP-native-iso3 [8]) [nM] | binding of ligand (in words) (OBP-native-iso4 [5]) | Kd (OBP-native-iso4 [5]) [nM] | other results
Nc1cccc2cc3ccccc3cc12 [AMA, 1-aminoanthracene] |  |  |  |  |  |  |  |  |  |  |  | Kd (OBP-native-iso3 [1]): 840 ± 80 nM; Kd (OBP-native-iso4 [2]): 500 ± 20 nM; Kd (OBP-native-iso2 [3]): 230 ± 20 nM; Kd (OBP-native-iso1 [4]): 370 ± 20 nM
CCCCCCCCCCCCCCCC(=O)O [Palmitic acid, hexadecanoic acid] | > 15000 | 1510 | 160 | 1030 | 160 | not able to bind |  |  |  |  |  | 
C[C@]12CC[C@@H](O)C[C@@H]1CC[C@@H]1[C@@H]2CC[C@]2(C)C=CC[C@@H]12 [Androstenol, 3α-hydroxy-5α-androst-16-ene] | 1430 | > 6000 |  | > 6000 |  |  | bind | 2590 | 490 | bind | 160 | Ka value, OBP-native-iso4 compared with OBP-native-iso3 (OBP-native-iso4 [9]): three times greater
C[C@]12CC[C@H]3[C@@H](CCC4=CC(=O)CC[C@@]43C)[C@@H]1CC[C@@H]2O [Testosterone, 17β-hydroxy-3-oxo-4-androstene, reference compound] |  |  |  |  |  |  | None of the four native isoforms bound |  |  | None of the four native isoforms bound |  | IC50 (OBP-native-iso3 [8]): > 6000 nM; IC50 (OBP-native-iso4 [5]): > 6000 nM; binding of ligand (in words) (OBP-native-iso2 [6]; OBP-native-iso2): None of the four native isoforms bound; IC50 (OBP-native-iso2 [6]): > 6000 nM; binding of ligand (in words) (OBP-native-iso1 [7]; OBP-native-iso1): None of the four native isoforms bound; IC50 (OBP-native-iso1 [7]): > 6000 nM
C[C@]12CCC(=O)C[C@@H]1CC[C@@H]1[C@@H]2CC[C@]2(C)C=CC[C@@H]12 [Androstenone, 3-keto-5α, 16-androstene] | 1890 | > 6000 |  | > 6000 |  |  | bind | 1280 | 230 | bind | 220 | 
CCCCCCCCCCCCCC(=O)O [Myristic acid, tetradecanoic acid] | > 15000 | 1030 | 110 | 330 | 50 | to a lesser extent |  |  |  |  |  | 
